Measurements: ChEMBL document CHEMBL1201862, “PubChem BioAssay data set” (2004)
The source made the active and inactive calls.

Columns and labels:
T-cell = assay: inhibitors of CD8+ T cell–vesicle binding, dose response, mouse 2C CD8+ T cells, flow cytometry (AID 485284); assay type: functional
[1] = target: T1, Runt-related transcription factor 1/Core-binding factor subunit beta (Homo sapiens, UniProt Q01196+Q13951); assay: inhibitors of RUNX1 Runt–CBFb-SMMHC binding, primary screen, biochemical, FRET, Cerulean-Runt, Venus-CBFb-SMMHC, uHTS (AID 1434); assay type: protein assay;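 also: partner is the CBFb-SMMHC leukemia fusion protein rather than wild-type CBFb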
T1 sequence (Q01196 whole entry, the tested form may be a part): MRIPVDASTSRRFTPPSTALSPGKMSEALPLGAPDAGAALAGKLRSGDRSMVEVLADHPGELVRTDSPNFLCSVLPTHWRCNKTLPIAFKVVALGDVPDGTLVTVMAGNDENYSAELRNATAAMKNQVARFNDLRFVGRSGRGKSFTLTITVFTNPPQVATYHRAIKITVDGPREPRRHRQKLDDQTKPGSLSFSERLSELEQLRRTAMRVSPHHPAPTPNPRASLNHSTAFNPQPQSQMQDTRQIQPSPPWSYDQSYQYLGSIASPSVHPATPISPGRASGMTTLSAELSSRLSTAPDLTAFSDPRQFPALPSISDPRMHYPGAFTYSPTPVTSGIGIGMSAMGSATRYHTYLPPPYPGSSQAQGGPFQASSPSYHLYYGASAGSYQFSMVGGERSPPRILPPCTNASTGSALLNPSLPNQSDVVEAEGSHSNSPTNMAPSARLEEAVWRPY
T1 sequence (Q13951 whole entry, the tested form may be a part): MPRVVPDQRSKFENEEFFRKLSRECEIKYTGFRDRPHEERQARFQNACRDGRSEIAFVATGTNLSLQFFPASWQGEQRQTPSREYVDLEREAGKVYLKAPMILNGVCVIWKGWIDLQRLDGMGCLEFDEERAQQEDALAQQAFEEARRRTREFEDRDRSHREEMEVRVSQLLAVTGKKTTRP

Aminopeptidase N = target: T2, Aminopeptidase N (Plasmodium falciparum FcB1/Columbia, UniProt O96935); assay: P. falciparum M1AAP inhibitors, biochemical, fluorogenic H-Leu-NHMec substrate, 1536-well (AID 1445); design: species or system Plasmodium falciparum 3D7, 3D7
T2 sequence (O96935 whole entry): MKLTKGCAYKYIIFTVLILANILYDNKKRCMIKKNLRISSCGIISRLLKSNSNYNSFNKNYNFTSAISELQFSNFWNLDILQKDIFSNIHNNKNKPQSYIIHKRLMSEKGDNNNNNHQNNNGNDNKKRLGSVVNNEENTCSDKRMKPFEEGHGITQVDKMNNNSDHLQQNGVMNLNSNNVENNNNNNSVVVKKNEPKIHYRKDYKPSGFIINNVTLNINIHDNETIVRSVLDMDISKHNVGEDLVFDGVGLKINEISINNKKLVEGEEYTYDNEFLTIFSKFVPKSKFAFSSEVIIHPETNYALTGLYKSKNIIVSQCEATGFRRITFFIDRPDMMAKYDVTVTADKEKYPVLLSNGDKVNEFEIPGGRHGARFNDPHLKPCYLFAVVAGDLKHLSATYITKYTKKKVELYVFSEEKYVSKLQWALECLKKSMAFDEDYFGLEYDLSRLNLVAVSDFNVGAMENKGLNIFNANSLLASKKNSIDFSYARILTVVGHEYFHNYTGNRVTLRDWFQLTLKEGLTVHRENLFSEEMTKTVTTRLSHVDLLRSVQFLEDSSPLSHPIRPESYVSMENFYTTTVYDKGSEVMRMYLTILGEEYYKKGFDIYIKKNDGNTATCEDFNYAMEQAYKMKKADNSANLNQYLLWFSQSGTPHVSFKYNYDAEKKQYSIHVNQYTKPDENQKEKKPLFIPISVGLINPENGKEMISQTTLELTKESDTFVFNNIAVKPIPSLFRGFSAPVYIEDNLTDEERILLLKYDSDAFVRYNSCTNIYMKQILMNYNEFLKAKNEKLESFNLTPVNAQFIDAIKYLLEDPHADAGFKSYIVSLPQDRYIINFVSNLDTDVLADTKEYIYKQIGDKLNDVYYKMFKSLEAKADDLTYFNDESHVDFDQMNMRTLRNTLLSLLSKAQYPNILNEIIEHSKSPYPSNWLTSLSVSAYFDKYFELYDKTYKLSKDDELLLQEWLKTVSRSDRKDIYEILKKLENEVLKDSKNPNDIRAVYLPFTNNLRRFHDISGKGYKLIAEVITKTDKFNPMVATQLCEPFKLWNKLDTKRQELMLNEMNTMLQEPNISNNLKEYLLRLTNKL

[2] = target: T1, Runt-related transcription factor 1/Core-binding factor subunit beta; assay: inhibitors of RUNX1 Runt–CBFb-SMMHC binding, biochemical, TR-FRET (AID 1438); assay type: protein assay
[3] = target: T3, Intestinal-type alkaline phosphatase (Homo sapiens, UniProt P09923); assay: human intestinal alkaline phosphatase activators, dose response, biochemical, luminescence, uHTS hits (AID 463120); assay type: functional
T3 sequence (P09923 whole entry): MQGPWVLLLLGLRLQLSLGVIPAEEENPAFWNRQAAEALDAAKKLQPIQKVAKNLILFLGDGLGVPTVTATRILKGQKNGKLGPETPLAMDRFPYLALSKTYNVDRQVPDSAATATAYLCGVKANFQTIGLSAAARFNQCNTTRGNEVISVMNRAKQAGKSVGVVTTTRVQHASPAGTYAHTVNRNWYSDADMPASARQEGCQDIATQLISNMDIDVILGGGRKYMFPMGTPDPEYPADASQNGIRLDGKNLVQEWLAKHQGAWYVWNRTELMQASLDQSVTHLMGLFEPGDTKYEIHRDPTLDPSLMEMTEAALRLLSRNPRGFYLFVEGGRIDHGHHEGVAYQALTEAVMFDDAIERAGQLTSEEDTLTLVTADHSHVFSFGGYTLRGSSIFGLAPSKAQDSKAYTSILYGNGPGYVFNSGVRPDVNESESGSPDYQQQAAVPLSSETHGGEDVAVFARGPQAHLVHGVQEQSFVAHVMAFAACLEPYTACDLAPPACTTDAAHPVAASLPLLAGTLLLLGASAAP

[4] = target: T3, Intestinal-type alkaline phosphatase; assay: Dose Response confirmation of uHTS hits from a small molecule inhibitors of human intestinal alkaline phosphatase via a luminescent assay. [Related pubchem assays (depositor defined):AID2544, AID2574]; assay type: functional
[5] = target: T4, Tyrosine-protein phosphatase non-receptor type 22 (Homo sapiens, UniProt Q9Y2R2); assay type: functional
T4 sequence (Q9Y2R2 whole entry): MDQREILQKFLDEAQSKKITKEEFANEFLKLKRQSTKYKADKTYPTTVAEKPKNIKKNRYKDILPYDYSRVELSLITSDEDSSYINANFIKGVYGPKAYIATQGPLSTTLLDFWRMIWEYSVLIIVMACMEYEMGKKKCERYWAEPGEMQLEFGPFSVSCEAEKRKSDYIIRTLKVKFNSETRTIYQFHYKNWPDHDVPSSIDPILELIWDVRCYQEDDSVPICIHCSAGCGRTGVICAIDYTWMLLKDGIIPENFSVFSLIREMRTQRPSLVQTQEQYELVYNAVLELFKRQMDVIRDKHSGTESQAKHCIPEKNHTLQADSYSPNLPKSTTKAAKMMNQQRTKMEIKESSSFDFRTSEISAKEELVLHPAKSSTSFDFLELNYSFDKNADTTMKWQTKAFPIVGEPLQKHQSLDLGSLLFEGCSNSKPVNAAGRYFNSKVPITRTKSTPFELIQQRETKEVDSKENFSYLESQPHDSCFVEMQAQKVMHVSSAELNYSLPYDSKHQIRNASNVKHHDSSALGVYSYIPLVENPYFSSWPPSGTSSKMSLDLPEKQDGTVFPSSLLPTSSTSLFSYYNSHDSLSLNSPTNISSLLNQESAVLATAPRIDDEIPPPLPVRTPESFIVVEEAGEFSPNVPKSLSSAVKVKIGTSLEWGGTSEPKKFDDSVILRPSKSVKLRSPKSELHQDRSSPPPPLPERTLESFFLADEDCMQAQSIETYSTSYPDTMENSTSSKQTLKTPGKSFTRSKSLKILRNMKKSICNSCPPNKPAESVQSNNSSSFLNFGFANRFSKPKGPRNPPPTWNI

[6] = target: T5, Tyrosine-protein phosphatase non-receptor type 7 (Homo sapiens, UniProt P35236); assay type: functional
T5 sequence (P35236 whole entry): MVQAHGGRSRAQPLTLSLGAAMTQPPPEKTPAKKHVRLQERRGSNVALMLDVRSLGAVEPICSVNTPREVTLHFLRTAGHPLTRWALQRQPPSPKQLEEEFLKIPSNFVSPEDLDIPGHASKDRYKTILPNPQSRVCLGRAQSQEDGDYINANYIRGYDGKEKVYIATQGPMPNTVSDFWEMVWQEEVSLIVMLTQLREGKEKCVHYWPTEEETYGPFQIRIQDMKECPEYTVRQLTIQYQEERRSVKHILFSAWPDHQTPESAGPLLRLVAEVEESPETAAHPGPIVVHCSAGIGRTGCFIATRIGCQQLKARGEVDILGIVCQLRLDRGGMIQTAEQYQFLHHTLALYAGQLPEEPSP

[7] = target: T4, Tyrosine-protein phosphatase non-receptor type 22; assay type: functional; remark: listed apart in the source
[8] = target: Signal transducer and activator of transcription 3 (Homo sapiens, UniProt P40763); assay: STAT3 inhibitors, late-stage profile, late-stage follow-up, cell-based, STAT1 panel, qPCR, cytotoxicity, panel member STAT3 Inhibition (AID 2078)
Sequence of Signal transducer and activator of transcription 3 (P40763 whole entry): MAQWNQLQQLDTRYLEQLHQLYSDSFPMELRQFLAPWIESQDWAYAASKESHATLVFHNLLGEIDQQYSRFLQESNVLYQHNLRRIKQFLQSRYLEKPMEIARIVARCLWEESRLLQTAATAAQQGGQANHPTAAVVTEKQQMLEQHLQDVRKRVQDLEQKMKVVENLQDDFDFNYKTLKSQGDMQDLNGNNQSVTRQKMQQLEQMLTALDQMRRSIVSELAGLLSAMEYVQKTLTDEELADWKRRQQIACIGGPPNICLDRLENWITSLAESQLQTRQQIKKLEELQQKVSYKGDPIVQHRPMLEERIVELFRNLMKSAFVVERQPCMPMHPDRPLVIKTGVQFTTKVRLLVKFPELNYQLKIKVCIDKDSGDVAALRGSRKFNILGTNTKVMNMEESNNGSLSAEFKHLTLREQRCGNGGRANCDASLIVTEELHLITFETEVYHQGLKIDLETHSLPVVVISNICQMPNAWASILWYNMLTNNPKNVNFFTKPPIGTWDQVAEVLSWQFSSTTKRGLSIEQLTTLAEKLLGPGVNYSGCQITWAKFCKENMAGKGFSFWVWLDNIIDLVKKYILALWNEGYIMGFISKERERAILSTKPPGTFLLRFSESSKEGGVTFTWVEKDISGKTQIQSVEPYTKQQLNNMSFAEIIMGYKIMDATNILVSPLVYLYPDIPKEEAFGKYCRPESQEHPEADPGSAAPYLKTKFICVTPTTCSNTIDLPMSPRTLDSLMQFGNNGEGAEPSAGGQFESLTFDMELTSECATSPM

[9] = target: Signal transducer and activator of transcription 1-alpha/beta (Homo sapiens, UniProt P42224); assay: STAT3 inhibitors, late-stage profile, late-stage follow-up, cell-based, STAT1 panel, qPCR, cytotoxicity, panel member STAT1 Inhibition (AID 2078)
Sequence of Signal transducer and activator of transcription 1-alpha/beta (P42224 whole entry): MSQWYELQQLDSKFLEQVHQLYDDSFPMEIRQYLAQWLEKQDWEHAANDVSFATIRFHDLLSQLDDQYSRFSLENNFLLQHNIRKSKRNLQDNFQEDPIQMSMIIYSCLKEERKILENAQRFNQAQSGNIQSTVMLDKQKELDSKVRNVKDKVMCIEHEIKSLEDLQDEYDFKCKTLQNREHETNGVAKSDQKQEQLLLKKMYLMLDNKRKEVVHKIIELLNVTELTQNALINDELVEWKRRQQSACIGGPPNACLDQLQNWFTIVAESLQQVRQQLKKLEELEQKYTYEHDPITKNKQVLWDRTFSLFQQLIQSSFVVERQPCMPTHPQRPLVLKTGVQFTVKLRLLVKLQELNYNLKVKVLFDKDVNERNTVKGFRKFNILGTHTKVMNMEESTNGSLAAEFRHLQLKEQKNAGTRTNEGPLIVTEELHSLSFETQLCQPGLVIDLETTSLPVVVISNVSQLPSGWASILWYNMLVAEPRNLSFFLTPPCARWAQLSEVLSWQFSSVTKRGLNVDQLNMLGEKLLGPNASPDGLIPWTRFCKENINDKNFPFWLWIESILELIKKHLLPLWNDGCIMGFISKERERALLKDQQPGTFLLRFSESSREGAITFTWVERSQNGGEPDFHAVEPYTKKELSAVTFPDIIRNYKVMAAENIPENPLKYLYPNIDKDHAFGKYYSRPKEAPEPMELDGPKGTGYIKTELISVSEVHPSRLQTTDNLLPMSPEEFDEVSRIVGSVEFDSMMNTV

[10] = target: Voltage-dependent T-type calcium channel subunit alpha-1H (Homo sapiens, UniProt O95180); assay: Cav3.2 T-type channel blockers, cell-based, SynthLib3 library, HEK293 Cav3.2, fluorescence (AID 493041); assay type: functional
[11] = target: T5, Tyrosine-protein phosphatase non-receptor type 7; assay: HePTP (PTPN7) phosphatase inhibitor potency, SAR follow-up, biochemical, set 2 (AID 449736); assay type: functional
Cannabinoid receptor 2 [12] = target: T6, Cannabinoid receptor 2 (Homo sapiens, UniProt P34972); assay: SAR analysis of antagonists of the Cannabinoid Receptor 2 using an Image-Based Assay - Set 2. [Related pubchem assays (depositor defined):AID1961, AID1965]; assay type: functional
T6 sequence (P34972 whole entry): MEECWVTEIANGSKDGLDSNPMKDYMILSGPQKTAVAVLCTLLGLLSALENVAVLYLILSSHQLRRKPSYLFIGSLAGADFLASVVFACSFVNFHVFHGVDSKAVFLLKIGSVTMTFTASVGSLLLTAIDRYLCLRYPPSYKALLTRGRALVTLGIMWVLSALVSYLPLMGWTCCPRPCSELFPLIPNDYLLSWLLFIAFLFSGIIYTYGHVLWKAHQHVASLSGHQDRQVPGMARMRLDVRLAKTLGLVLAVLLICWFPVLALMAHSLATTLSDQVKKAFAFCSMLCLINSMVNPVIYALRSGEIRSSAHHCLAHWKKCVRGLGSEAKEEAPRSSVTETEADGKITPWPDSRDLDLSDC

[13] = target: T7, G-protein coupled receptor 35 (Homo sapiens, UniProt Q9HC97); assay: SAR analysis of Antagonists of the GPR35 Receptor using an Image-Based Assay - Set 4. [Related pubchem assays (depositor defined):[…]]; assay type: functional
T7 sequence (Q9HC97 whole entry): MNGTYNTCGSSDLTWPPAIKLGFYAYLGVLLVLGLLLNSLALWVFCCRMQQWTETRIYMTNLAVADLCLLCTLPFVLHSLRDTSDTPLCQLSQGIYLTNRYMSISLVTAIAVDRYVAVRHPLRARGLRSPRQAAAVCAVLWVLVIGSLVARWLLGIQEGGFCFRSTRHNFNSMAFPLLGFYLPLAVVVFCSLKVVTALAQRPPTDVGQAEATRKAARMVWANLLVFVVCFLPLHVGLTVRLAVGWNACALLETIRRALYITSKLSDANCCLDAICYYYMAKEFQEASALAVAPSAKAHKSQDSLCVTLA

Cannabinoid receptor 1 [14] = target: T8, Cannabinoid receptor 1 (Homo sapiens, UniProt P21554); assay: SAR analysis of antagonists of the Cannabinoid Receptor 1 using an Image-Based Assay - Set 3. [Related pubchem assays (depositor defined):AID1961, AID1965]; assay type: functional
T8 sequence (P21554 whole entry): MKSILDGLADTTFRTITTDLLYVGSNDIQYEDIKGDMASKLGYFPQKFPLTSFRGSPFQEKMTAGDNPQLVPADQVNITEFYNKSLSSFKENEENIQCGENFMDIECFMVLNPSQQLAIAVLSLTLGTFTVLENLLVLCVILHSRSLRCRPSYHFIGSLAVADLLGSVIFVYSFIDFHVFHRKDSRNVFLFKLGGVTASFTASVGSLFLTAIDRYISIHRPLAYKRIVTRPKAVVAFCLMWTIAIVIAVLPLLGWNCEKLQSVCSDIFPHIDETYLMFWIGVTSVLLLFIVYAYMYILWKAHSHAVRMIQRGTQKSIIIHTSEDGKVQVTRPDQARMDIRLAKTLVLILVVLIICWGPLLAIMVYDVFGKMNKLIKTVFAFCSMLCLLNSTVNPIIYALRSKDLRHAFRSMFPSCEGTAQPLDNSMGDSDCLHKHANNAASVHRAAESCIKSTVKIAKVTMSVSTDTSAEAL

Cannabinoid receptor 1 [15] = target: T8, Cannabinoid receptor 1; assay: SAR analysis of agonists of the Cannabinoid Receptor 1 using an Image-Based Assay - Set 3. [Related pubchem assays (depositor defined):AID1961, AID1965]; assay type: functional
Cannabinoid receptor 2 [16] = target: T6, Cannabinoid receptor 2; assay: SAR analysis of agonists of the Cannabinoid Receptor 2 using an Image-Based Assay - Set 2. [Related pubchem assays (depositor defined):AID1961, AID1965]; assay type: functional
[17] = target: G-protein coupled receptor 55 (Homo sapiens, UniProt Q9Y2T6); assay: SAR analysis of selective Agonists of GPR55 using an Image-Based Assay - Set 2. [Related pubchem assays (depositor defined):AID1961, AID1965]; assay type: functional
Sequence of G-protein coupled receptor 55 (Q9Y2T6 whole entry): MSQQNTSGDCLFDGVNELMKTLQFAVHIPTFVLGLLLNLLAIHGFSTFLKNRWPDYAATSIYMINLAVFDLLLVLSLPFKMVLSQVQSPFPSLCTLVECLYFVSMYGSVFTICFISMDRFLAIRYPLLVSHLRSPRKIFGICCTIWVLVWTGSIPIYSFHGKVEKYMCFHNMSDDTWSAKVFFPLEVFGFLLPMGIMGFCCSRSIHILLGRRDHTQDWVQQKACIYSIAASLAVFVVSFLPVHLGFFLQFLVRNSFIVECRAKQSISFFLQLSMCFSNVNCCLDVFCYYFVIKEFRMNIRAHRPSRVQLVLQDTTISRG

[18] = target: T7, G-protein coupled receptor 35; assay: SAR analysis of Agonists of the GPR35 Receptor using an Image-Based Assay - Set 3. [Related pubchem assays (depositor defined):AID1961, AID1965]; assay type: functional
[19] = target: T9, Kappa-type opioid receptor (Homo sapiens, UniProt P41145); assay: SAR analysis of small molecule agonists of the kappa opioid receptor via a luminescent beta-arrestin assay - Set 3. [Related pubchem assays (depositor defined):AID1777, AID1785, AID1786, AID1966, AID2133, AID2136, AID2284, AID2500]; assay type: functional
T9 sequence (P41145 whole entry): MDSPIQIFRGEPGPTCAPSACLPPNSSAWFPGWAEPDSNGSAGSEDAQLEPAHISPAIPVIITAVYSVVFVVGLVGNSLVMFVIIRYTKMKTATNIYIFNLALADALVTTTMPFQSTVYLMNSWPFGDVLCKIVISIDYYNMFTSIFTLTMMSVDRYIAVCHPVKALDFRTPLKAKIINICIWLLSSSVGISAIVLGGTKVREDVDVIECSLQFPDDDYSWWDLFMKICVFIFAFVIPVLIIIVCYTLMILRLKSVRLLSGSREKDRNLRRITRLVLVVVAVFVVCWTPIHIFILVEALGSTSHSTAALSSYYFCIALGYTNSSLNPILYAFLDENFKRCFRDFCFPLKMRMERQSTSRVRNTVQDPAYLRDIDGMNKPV

[20] = target: Delta-type opioid receptor (Homo sapiens, UniProt P41143); assay: SAR Analysis of Agonists of the DOR Receptor using an Image-Based Assay - Set 3. [Related pubchem assays (depositor defined):AID1777, AID1786]; assay type: functional
Sequence of Delta-type opioid receptor (P41143 whole entry): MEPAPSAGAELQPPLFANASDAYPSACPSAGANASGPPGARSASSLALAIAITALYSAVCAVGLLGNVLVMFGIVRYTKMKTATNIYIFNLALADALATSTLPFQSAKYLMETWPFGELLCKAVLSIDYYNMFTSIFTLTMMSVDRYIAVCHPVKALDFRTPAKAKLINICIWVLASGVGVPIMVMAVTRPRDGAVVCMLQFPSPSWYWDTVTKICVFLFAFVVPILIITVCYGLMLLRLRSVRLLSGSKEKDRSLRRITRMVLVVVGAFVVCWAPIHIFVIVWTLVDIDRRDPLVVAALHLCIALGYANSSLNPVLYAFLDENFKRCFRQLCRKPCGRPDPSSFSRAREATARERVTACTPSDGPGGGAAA

Mu-type opioid receptor = Mu-type opioid receptor (Homo sapiens, UniProt P35372); assay: SAR Analysis of Agonists of the MOR Receptor using an Image-Based Assay - Set 3. [Related pubchem assays (depositor defined):AID1777, AID1785, AID1786, AID1966, AID2133, AID2136, AID2284, AID2285, AID2352]; assay type: functional
[21] = target: T9, Kappa-type opioid receptor; assay: KOR agonist analogs, arrestin-GFP redistribution, SAR follow-up, imaging, image-based, set 3 (AID 488833); assay type: functional
Hexokinase HKDC1 = Hexokinase HKDC1 (Homo sapiens, UniProt Q2TB90); assay: HKDC1 hexokinase inhibitors, dose response, biochemical, W721R variant (AID 504729); assay type: functional
Hexokinase-1 = Hexokinase-1 (Homo sapiens, UniProt P19367); assay: hexokinase 1 activators, dose response, selectivity assay for HKDC1 activator project, biochemical (AID 504762); assay type: functional
[22] = target: T10, Rac GTPase-activating protein 1 (Homo sapiens, UniProt Q9H0H5); assay: MgcRacGAP GTPase-activating activity inhibitors, confirmation, biochemical, ADP Hunter fluorescence, primary and confirmatory (AID 624330); assay type: functional
T10 sequence (Q9H0H5 whole entry): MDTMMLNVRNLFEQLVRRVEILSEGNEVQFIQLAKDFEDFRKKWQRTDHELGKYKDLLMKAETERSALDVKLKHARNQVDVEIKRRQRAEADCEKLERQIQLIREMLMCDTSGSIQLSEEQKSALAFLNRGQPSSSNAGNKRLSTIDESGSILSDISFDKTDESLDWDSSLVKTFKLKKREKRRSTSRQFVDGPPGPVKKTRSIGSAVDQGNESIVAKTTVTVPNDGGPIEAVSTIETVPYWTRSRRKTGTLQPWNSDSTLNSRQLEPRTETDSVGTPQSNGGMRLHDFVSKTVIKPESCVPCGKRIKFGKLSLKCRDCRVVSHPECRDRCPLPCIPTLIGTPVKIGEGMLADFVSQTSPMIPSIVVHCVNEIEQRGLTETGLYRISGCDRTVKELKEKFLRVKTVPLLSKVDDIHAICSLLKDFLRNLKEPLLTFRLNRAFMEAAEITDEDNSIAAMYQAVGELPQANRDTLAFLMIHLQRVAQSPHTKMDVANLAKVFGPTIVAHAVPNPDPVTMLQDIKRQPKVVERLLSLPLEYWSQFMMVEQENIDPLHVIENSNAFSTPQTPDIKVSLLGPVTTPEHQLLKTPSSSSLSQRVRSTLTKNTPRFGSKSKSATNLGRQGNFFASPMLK

## COc1ccc(C2=CC(=O)CC(c3ccc(OC)cc3)C2)cc1 (configuration not stated)
T-cell
  EC50: 4.09 µM (active)

## CC(C)OCCCn1c(-c2ccco2)nc2nc3ccccc3nc21
[1]
  IC50: 7.07 µM (active)
Aminopeptidase N
  IC50: 92.6 µM (active)
[2]
  IC50: > 100 µM (inactive)

## CCC(OC(=O)C1=Cc2ccccc2OC1)C(=O)NC1CCCC1 (configuration not stated)
[3]
  EC50: > 100 µM (inactive)
[4]
  IC50: > 100 µM (inactive)

## COc1ccc(S(=O)(=O)N2CCCCCC2)cc1C(=O)OCc1c(C)noc1C
[5]
  IC50: > 79.4 µM (inactive)
[6]
  IC50: > 79.4 µM (inactive)
[7]
  IC50: > 79.4 µM (inactive)

## c1ccc(CC2CCN(c3ncnc4scc(-c5cccs5)c34)CC2)cc1
[8]
  IC50: 16.7 µM (inactive)
[9]
  IC50: > 55.7 µM (inactive)

## CCC(C)CN1C[C@@H]2C(CNC(=O)c3cc(Cl)cc(Cl)c3)[C@@H]2C1 (some centres not stated)
[10]
  EC50: 4 µM (active)

## NS(=O)(=O)c1ccc(NC(=S)NC2CCCc3ccccc32)cc1 (configuration not stated)
[11]
  IC50: 66.5 µM (active)

## Cc1cccc(N2CCN(C(=O)c3cccc(S(=O)(=O)N4CCOCC4)c3)CC2)c1C
Cannabinoid receptor 2 [12]
  IC50: > 32 µM (inactive)
[13]
  IC50: > 32 µM (inactive)
Cannabinoid receptor 1 [14]
  IC50: > 32 µM (inactive)
Cannabinoid receptor 1 [15]
  EC50: > 32 µM (inactive)
Cannabinoid receptor 2 [16]
  EC50: > 32 µM (inactive)
[17]
  EC50: > 32 µM (inactive)
[18]
  EC50: > 32 µM (inactive)

## CC(=O)Oc1ccc(CSc2nnc(-c3ccccn3)n2Cc2ccco2)cc1
[19]
  EC50: > 20 µM (inactive)
[20]
  EC50: > 64 µM (inactive)
Mu-type opioid receptor
  EC50: > 32 µM (inactive)
[21]
  EC50: > 32 µM (inactive)

## O=C(CNC(=O)c1ccc2c(c1)OCCO2)N/N=C/c1ccc(O)cc1O
Hexokinase HKDC1
  IC50: > 80 µM (inactive)
Hexokinase-1
  EC50: > 80 µM (inactive)
[22]
  IC50: 160 µM (active)
